Experimental data taken from patent US20260297542A1, “HERBICIDE RESISTANT PLANTS” (SYNGENTA CROP PROTECTION AG, priority 2023, published 2026).
Numbering of substitutions follows the chain as printed.

Columns and labels:
[1] = target: T1, AtPPO1 V365L G404A L479N (SEQ ID NO.136) (Arabidopsis thaliana, UniProt P55826, G404A/L479N/V365L); test: fluorescent Protoporphyrinogen Oxidase assay, crude extract; type: biochemical; details: read-out: percentage inhibition
T1 construct: made in house; host or cells: E. coli BL21 (DE3) hemG, crude extract
T1 sequence (P55826 35-537 V365L/G404A/L479N): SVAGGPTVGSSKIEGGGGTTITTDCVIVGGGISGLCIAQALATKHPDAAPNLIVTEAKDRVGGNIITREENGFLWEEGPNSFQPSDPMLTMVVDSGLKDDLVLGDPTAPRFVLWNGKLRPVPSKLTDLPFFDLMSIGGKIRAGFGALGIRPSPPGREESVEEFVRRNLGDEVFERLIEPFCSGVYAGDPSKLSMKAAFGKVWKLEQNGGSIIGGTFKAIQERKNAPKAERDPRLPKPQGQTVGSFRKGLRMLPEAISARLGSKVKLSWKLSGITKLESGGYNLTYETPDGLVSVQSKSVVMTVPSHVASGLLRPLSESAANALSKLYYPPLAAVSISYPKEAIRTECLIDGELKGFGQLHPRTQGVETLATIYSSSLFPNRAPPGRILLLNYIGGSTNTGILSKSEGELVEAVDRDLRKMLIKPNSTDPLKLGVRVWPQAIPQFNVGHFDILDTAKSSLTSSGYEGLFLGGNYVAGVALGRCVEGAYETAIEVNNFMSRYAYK

[2] = target: T2, AtPPO1 S305L L361D V365M (SEQ ID NO.133) (Arabidopsis thaliana, UniProt P55826, S305L/V365M/Y361D); test: as above; type: biochemical; details: read-out: percentage inhibition
T2 sequence (P55826 35-537 S305L/Y361D/V365M): T1 sequence (P55826 35-537 V365L/G404A/L479N) with S271L, Y327D, L331M, A370G, N445L

CCOC(=O)[C@]1(C)CC(c2cc(-n3c(=O)n(C)c(=S)n(C)c3=O)c(F)cc2Cl)=NO1 [Herbicide D, ethyl (5S)-3-[2-chloro-5-(3,5-dimethyl-2,6-dioxo-4-thioxo-1,3,5-triazinan-1-yl)-4-fluoro-phenyl]-5-methyl-4H-isoxazole-5-carboxylate]
inhibition at 0.1 ppm [1]: 4%
inhibition at 1 ppm [1]: 75%
inhibition at 10 ppm [1]: 99%
inhibition at 100 ppm [1]: 100%
inhibition at 0.1 ppm [2]: 37%
inhibition at 1 ppm [2]: 87%
inhibition at 10 ppm [2]: 99%
inhibition at 100 ppm [2]: 100%

CCOC(=O)C1(C)CC(c2cc(-n3c(=O)cc(C(F)(F)F)n(C)c3=O)c(F)cc2Cl)=NO1 (stereo not shown) [Herbicide C, 3-(2-chloro-4-fluoro-5-(3-methyl-2,6-dioxo-4-trifluoromethyl-3,6-dihydropyrimidin-1(2H)-yl)phenyl)-5-methyl-4,5-dihydroisoxazole-5-carboxylic acid ethyl ester]
inhibition at 0.1 ppm [1]: 34%
inhibition at 1 ppm [1]: 90%
inhibition at 10 ppm [1]: 99%
inhibition at 100 ppm [1]: 100%
inhibition at 0.1 ppm [2]: 30%
inhibition at 1 ppm [2]: 56%
inhibition at 10 ppm [2]: 92%
inhibition at 100 ppm [2]: 100%

C#CCN1C(=O)C(F)(F)Oc2cc(F)c(-n3c(=O)n(C)c(=S)n(C)c3=O)cc21 [Herbicide B, trifludimoxazin]
inhibition at 0.1 ppm [1]: 79%
inhibition at 1 ppm [1]: 100%
inhibition at 10 ppm [1]: 100%
inhibition at 100 ppm [1]: 100%
inhibition at 0.1 ppm [2]: 96%
inhibition at 1 ppm [2]: 100%
inhibition at 10 ppm [2]: 100%
inhibition at 100 ppm [2]: 100%

CC(C)N(C)S(=O)(=O)NC(=O)c1cc(-n2c(=O)cc(C(F)(F)F)n(C)c2=O)c(F)cc1Cl [Herbicide E, saflufenacil]
inhibition at 0.1 ppm [1]: 0%
inhibition at 1 ppm [1]: 39%
inhibition at 10 ppm [1]: 86%
inhibition at 100 ppm [1]: 100%
inhibition at 0.1 ppm [2]: 0%
inhibition at 1 ppm [2]: 10%
inhibition at 10 ppm [2]: 76%
inhibition at 100 ppm [2]: 88%

CCOC(=O)COc1ncccc1Oc1cc(-n2c(=O)cc(C(F)(F)F)n(C)c2=O)c(F)cc1Cl [Herbicide A, epyrifenacil]
inhibition at 0.1 ppm [1]: 58%
inhibition at 1 ppm [1]: 95%
inhibition at 10 ppm [1]: 100%
inhibition at 100 ppm [1]: 100%
inhibition at 0.1 ppm [2]: 9%
inhibition at 1 ppm [2]: 53%
inhibition at 10 ppm [2]: 84%
inhibition at 100 ppm [2]: 100%
